melting point: 228 to 230 °C
Structure (SMILES): COC(=O)c1ccc(Oc2ccc(NC(=O)Nc3ccc(Cl)c(C(F)(F)F)c3)cc2)cn1 [Entry 55, N-(4-chloro-3-(trifluoromethyl)phenyl)-N′-(4-(2-(methoxycarbonyl)-5-pyridyloxy)phenyl) urea]

Reference: patent US20020137774A1, “Carboxyaryl substituted diphenyl ureas as raf kinase inhibitors” (BAYER CORPORATION, priority 1999, published 2002)
